Patent US6403788B1, “Non-genotoxic metalloporphyrins as synthetic catalytic scavengers of reactive oxygen species” (Eukarion, Inc., priority 2000, dated 2002)

Tests used:
[1] = Catalase activity, hydrogen peroxide consumed at 20 minutes; format: biochemical; conditions: over 20 minutes; 10 μM compound, 100 μM hydrogen peroxide, 40 mM sodium phosphate pH 7.4
Protocol: (§1) Catalase activity was measured by incubating the sample compound with hydrogen peroxide and determining the amount of hydrogen peroxide remaining after a period of time using a colorimetric peroxidase-coupled assay method. 10 μM sample compound and 100 μM hydrogen peroxide in 40 mM sodium phosphate pH 7.4 were incubated together at ambient temperature in a multi-well plate. After the desired reaction period had elapsed, 20 μl of peroxidase/ABTS reagent was added (peroxidase/ABTS reagent contained 100 μl of 50 mM Na phosphate, pH 7.4, 1 mg horseradish peroxidase (1310 U/mg) and […]). After five minutes, absorbance at 750 nm was determined. The amount of hydrogen peroxide remaining was calculated based on a standard curve. To compare rates of catalase reaction, the amount of hydrogen peroxide consumed at 20 minutes was determined (See table III). It was also of interest to determine the total number of turnovers completed by the compound before inactivation by hydrogen peroxide. This was assayed under similar conditions, except that 15.8 μM compound was combined with 1582 μM hydrogen peroxide in 5 mM Na phosphate, pH 7.4. Reactions were allowed to proceed to completion and then the amount of hydrogen peroxide remaining was determined as described above. Results showing […] in the turnover assay (nmoles hydrogen peroxide per nmole compound) are also shown in Table III.

[2] = Catalase turnover assay, total hydrogen peroxide consumed before inactivation; format: biochemical; conditions: to completion, 15.8 μM compound, 1582 μM hydrogen peroxide, 5 mM Na phosphate pH 7.4
Protocol: as §1

[3] = Peroxidase activity, ABTS oxidation; format: biochemical; conditions: 10 μM compound, 200 μM hydrogen peroxide, 500 μM ABTS, pH 8.1, 740 nm
Protocol: Peroxidase activity was measured by incubating 10 μM compound, 200 μM hydrogen peroxide and 500 μM ABTS in 50 mM sodium phosphate, pH 8.1. The rate of ABTS oxidation was monitored at 740 nm and initial rates (change in absorbance per min.) determined.

[4] = Superoxide dismutase activity, xanthine-xanthine oxidase / cytochrome C; format: biochemical; conditions: reciprocal of IC50; xanthine 60 μM, xanthine oxidase 0.009 units/ml, cytochrome C 27.8 μM
Protocol: Superoxide Dismutase Activity was measured by incubating the compound with a superoxide generating system (Xanthine, 60 μM-Xanthine Oxidase, 0.009 units/ml) and a detector molecule (Cytochrome C, 27.8 μM). Upon reacting with a molecule of superoxide, Cytochrome C undergoes a spectrum-shift which can be detected as an increase in absorbance at 550 nm. In this assay procedure, the reactant concentrations were adjusted to give a reaction rate close to 0.1 AU/min. at 2-3 min. after the reaction began. Addition of compounds with Superoxide Dismutase activity reduce the rate of absorbance change. Compounds were assayed at several concentrations (typically at 0, 2, 4, and 8 μM) and the resulting rates were graphed and fitted to a linear regression formula. The linear regression formula was then solved to determine the concentration of compound required to reduce the reaction rate to 50% of the rate without compound present (IC50).

[5] = test system: ΦX 174 DNA Plasmid (Form I); assay: Cleavage of ΦX 174 DNA plasmid (form I), compound alone or activated with KHSO5; format: biochemical, phage ΦX 174
From the text: (§2) The DNA cleavage activity was quantified in terms of number of single-strand breaks per DNA molecule according to the equation […], Io=% form I (supercoiled DNA) in the DNA control, and I=% form I in the experiment (see Bernadou et al, Biochemistry, 28: 7268-7275, (1989)). This assay is very sensitive and is able to detect very low levels of DNA activity. S values less than S=1.0 are indicative of very low DNA cleavage activity when the compounds are at a concentration of equal to or less than 1000 nM and KHSO5 is present at a concentration of equal to or less than 100 μM.
(§3) ΦX 174 DNA digestion conditions for standard experiments were as follows: commercially available DNA was diluted to 50 μg/mL in phosphate buffer (10 mM, pH 7.5). The reaction involved 5 μL of ΦX 174 DNA (50 μg/mL, 74.8 μM in base pairs), 5 μL of 40 mM phosphate buffer, pH 7.5 with 400 mM NaCl, 5 μL of metalloporphyrin in double-distilled water or 5 μL of iron-bleomycin complex in double-distilled water, and 5 μL of KHSO5 or 5 μL of H2O2 or 5 μL of ascorbate in double-distilled water. Preincubation of DNA and metalloporphyrins or iron-bleomycin complex was performed for about 15 min. The digestion time in the presence of KHSO5 was 10 min, of H2O2 was 30 min and of ascorbate was 30 min at 20° C. DNA cleavage was monitored by agarose gel electrophoresis. Reactions with KHSO5 were first quenched by 2 μL of 100 mM Hepes buffer, pH 8. In all cases, reactions were quenched by 5 μL of a stopping reagent. The stopping reagent consisted of 250 mM Hepes buffer, pH 7.4, containing 75% glycerol and 0.05% bromophenol blue. Reaction mixtures were then run in 0.8% agarose slab horizontal gel containing ethidium bromide […], at constant current (25 mA for 15h), in 89 mM Tris-borate buffer and 2.5 mM EDTA pH 8.3. Bands were located by WV light (254 nm), photographed, and quantitated by microdensitometry. The correction coefficient 1.47±0.30 was used for decreased stainability of form I DNA vs form II DNA and form III DNA.

[6] = test system: ΦX 174 DNA Plasmid (Form I); assay: Cleavage of ΦX 174 DNA plasmid (form I), activation with ascorbate in the presence of air; format: biochemical, phage ΦX 174; conditions: for S (single-strand breaks per DNA molecule) / form % I / form % II / form % III: DNA 3.5 nM
From the text: as §2, §3

[7] = test system: ΦX 174 DNA Plasmid (Form I); assay: Cleavage of ΦX 174 DNA plasmid (form I), activation with H2O2; format: biochemical, phage ΦX 174; conditions: DNA 3.5 nM, compound 1 μM, H2O2 1 mM
From the text: as §2, §3

[8] = DNA 3.5 nM, compound 1 μM, KHSO5 100 μM
[9] = compound 10 nM, without ascorbate (Table II)

For `O=C(O)c1ccc(-c2c3nc(c(-c4ccc(C(=O)O)cc4)c4ccc([n-]4)c(-c4ccc(C(=O)O)cc4)c4nc(c(-c5ccc(C(=O)O)cc5)c5ccc2[n-]5)C=C4)C=C3)cc1.[Mn+3]` [MnTBAP, Mn(III) tetrakis (4-benzoic acid) porphyrin, reference compound], the “CATALASE* Rate at 20 mins.” value [1] was 0.4 nmole H2O2/nmole Structural Formula compound, the “CATALASE** H2O2 Consumption” value [2] was 38.5 nmole H2O2/nmole Structural Formula compound and the “PEROXIDASE Initial Rate” value [3] was 0.0304 change in absorbance per min. The “Cyt C SOD 1/(IC50, μM)” value [4] was 0.015 µM⁻¹.

In the case of `CC(=O)[O-].CC(=O)[O-].CC(=O)[O-].CC(=O)[O-].CC(=O)[O-].CC[N+](C)(CC)CCNS(=O)(=O)c1c(C)cc(C)c(-c2c3nc(c(-c4c(C)cc(C)c(S(=O)(=O)NCC[N+](C)(CC)CC)c4C)c4ccc([n-]4)c(-c4c(C)cc(C)c(S(=O)(=O)NCC[N+](C)(CC)CC)c4C)c4nc(c(-c5c(C)cc(C)c(S(=O)(=O)NCC[N+](C)(CC)CC)c5C)c5ccc2[n-]5)C=C4)C=C3)c1C.O.O.[Mn+3]` [Structural Formula VII, meso-tetrakis[3-(N-(2-(N,N,N-diethylmethylammonio)ethyl)aminosulfonyl)-2,4,6-trimethylphenyl]porphyrinato diaqua-manganese (III) pentaacetate], the “CATALASE* Rate at 20 mins.” value [1] is reported as 1.3 nmole H2O2/nmole Structural Formula compound, the “CATALASE** H2O2 Consumption” value [2] is reported as 166.6 nmole H2O2/nmole Structural Formula compound and the “PEROXIDASE Initial Rate” value [3] is reported as 0.0025 change in absorbance per min. The “Cyt C SOD 1/(IC50, μM)” value [4] was 0.013 µM⁻¹.

In the case of `CC[NH+](CC)CCNS(=O)(=O)c1ccc(-c2c3nc(c(-c4ccc(S(=O)(=O)NCC[NH+](CC)CC)cc4)c4ccc([n-]4)c(-c4ccc(S(=O)(=O)NCC[NH+](CC)CC)cc4)c4nc(c(-c5ccc(S(=O)(=O)NCC[NH+](CC)CC)cc5)c5ccc2[n-]5)C=C4)C=C3)cc1.O.O.[Cl-].[Cl-].[Cl-].[Cl-].[Cl-].[Fe+3]` [Structural Formula III, meso-tetrakis[4-(N-(2-(N,N-diethylammonio)ethyl)aminosulfonyl)phenyl]porphyrinato diaqua-iron (III) pentachloride], the “CATALASE* Rate at 20 mins.” value [1] is reported as 0.3 nmole H2O2/nmole Structural Formula compound, the “CATALASE** H2O2 Consumption” value [2] is reported as 4.7 nmole H2O2/nmole Structural Formula compound and the “PEROXIDASE Initial Rate” value [3] is reported as 0.0363 change in absorbance per min. The “Cyt C SOD 1/(IC50, μM)” value [4] was 0.045 µM⁻¹.

In the case of `CC(=O)[O-].CC(=O)[O-].CC(=O)[O-].CC(=O)[O-].CC(=O)[O-].CC[N+](C)(CC)CCNS(=O)(=O)c1c(C)cc(C)c(C2=C3C=CC4=[N+]3[Fe-]35[n]6c2ccc6C(c2c(C)cc(C)c(S(=O)(=O)NCC[N+](C)(CC)CC)c2C)=C2C=CC(=[N+]23)C(c2c(C)cc(C)c(S(=O)(=O)NCC[N+](C)(CC)CC)c2C)=c2ccc([n]25)=C4c2c(C)cc(C)c(S(=O)(=O)NCC[N+](C)(CC)CC)c2C)c1C` [Structural Formula VIII, meso-tetrakis[3-(N-(2-(N,N,N-diethylmethylammonio)ethyl)aminosulfonyl)-2,4,6-trimethylphenyl]porphyrinato diaqua-iron(III) pentaacetate], the “S (single-strand breaks per DNA molecule)” value [5, 8] is reported as 0.03 SSBs, the “form % I” value [5, 8] is reported as 90% and the “form % II” value [5, 8] is reported as 10%. The “form % III” value [5, 8] was 0%, the “DNA cleavage activity in oxidative medium” value ([5]; oxidative medium (KHSO5)) was “do not exhibit any significant DNA cleavage activity” and the “S (single-strand breaks per DNA molecule)” value ([6]; compound 1 μM, Asc. 1 mM) was 1.61 SSBs. For the same molecule, the “form % I” value ([6]; compound 1 μM, Asc. 1 mM) was 43%, the “form % II” value ([6]; compound 1 μM, Asc. 1 mM) was 57% and the “form % III” value ([6]; compound 1 μM, Asc. 1 mM) was 0%. The “S (single-strand breaks per DNA molecule)” value [7] was 0.13 SSBs, the “form % I” value [7] was 86% and the “form % II” value [7] was 14%. For the same molecule, the “form % III” value [7] was 0%.

In the case of `CC[NH+](CC)CCNS(=O)(=O)c1ccc(C2=C3C=CC4=[N+]3[Mn-]35[n]6c2ccc6C(c2ccc(S(=O)(=O)NCC[NH+](CC)CC)cc2)=C2C=CC(=[N+]23)C(c2ccc(S(=O)(=O)NCC[NH+](CC)CC)cc2)=c2ccc([n]25)=C4c2ccc(S(=O)(=O)NCC[NH+](CC)CC)cc2)cc1.[Cl-].[Cl-].[Cl-].[Cl-].[Cl-]` [Structural Formula II, meso-tetrakis[4-(N-(2-(N,N-diethylammonio)ethyl)aminosulfonyl)phenyl]porphyrinato diaqua-manganese (III) pentachloride], the “CATALASE* Rate at 20 mins.” value [1] is reported as 1.6 nmole H2O2/nmole Structural Formula compound, the “CATALASE** H2O2 Consumption” value [2] is reported as 42.4 nmole H2O2/nmole Structural Formula compound and the “PEROXIDASE Initial Rate” value [3] is reported as 0.0151 change in absorbance per min. For the same molecule, the “Cyt C SOD 1/(IC50, μM)” value [4] was 0.034 µM⁻¹.

For `CC(=O)[O-].CC(=O)[O-].CC(=O)[O-].CC(=O)[O-].CC(=O)[O-].CC[N+](C)(CC)CCNS(=O)(=O)c1ccc(-c2c3nc(c(-c4ccc(S(=O)(=O)NCC[N+](C)(CC)CC)cc4)c4ccc([n-]4)c(-c4ccc(S(=O)(=O)NCC[N+](C)(CC)CC)cc4)c4nc(c(-c5ccc(S(=O)(=O)NCC[N+](C)(CC)CC)cc5)c5ccc2[n-]5)C=C4)C=C3)cc1.O.O.[Mn+3]` [Structural Formula VI, meso-tetrakis[4-(N-(2-(N,N,N-diethylmethylammonio)ethyl)aminosulfonyl)phenyl]porphyrinato diaqua-manganese (III) pentaacetate], the “CATALASE* Rate at 20 mins.” value [1] was 2.4 nmole H2O2/nmole Structural Formula compound, the “CATALASE** H2O2 Consumption” value [2] was 42 nmole H2O2/nmole Structural Formula compound and the “PEROXIDASE Initial Rate” value [3] was 0.0011 change in absorbance per min. The “Cyt C SOD 1/(IC50, μM)” value [4] was 0.041 µM⁻¹.

For Bleomycin [reference compound], the “DNA cleavage” value ([6]; 1 μM concentration, ascorbate) was “all DNA is cleaved in small fragments”, the “S (single-strand breaks per DNA molecule)” value ([6]; compound 10 nM, Asc. 1 mM) was 7.79 SSBs and the “form % I” value ([6]; compound 10 nM, Asc. 1 mM) was 7%. The “form % II” value ([6]; compound 10 nM, Asc. 1 mM) was 71%, the “form % III” value ([6]; compound 10 nM, Asc. 1 mM) was 22% and the “S (single-strand breaks per DNA molecule)” value [6, 9] was 0.01 SSBs. For the same molecule, the “form % I” value [6, 9] was 94%, the “form % II” value [6, 9] was 6% and the “form % III” value [6, 9] was 0%. For the same molecule, the “times more active in DNA cleavage than Structural Formula V” value ([6]; same concentration (10 nM), ascorbate 1 mM, from experiments 2, 3, 7 and 8) was 768 times.
